In US10226448B2, “3-(1H-pyrrolo[3,2-C]pyridin-2-yl)-1H-pyrazolo[3,4-B]pyridines and therapeutic uses thereof” (Samumed, LLC, priority 2015, dated 2019):

How the values were obtained:
Assay type in all cases: cell-based
[1] = tested on: LL29 cells (primary human fibroblasts derived from IPF patients), α-smooth muscle actin; test: Inhibition of the fibrotic process: αSMA staining in TGF-β1 treated primary human fibroblasts from IPF patients (LL29 cells); conditions: Fibroblast; for EC50: 96 h, LL29 cells, TGF-β1 20 ng/mL, 4 days, % αSMA positive cells; for inhibition at 10 µM: read-out: percent inhibition at 10 μM
Outline: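 IPF-patient-derived LL29 lung fibroblasts in F12 with 1% FBS, stimulated with TGF-β1 alongside compound; TGF-β1 plus DMSO wells served as controls. After 4 days, nuclei stained with 1 μM SYTOX green for 30 min at room temperature, alongside αSMA staining.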

[2] = tested on: SW480 colon cancer cells; test: Cell viability assay (CellTiter-Blue) in SW480 colon cancer cells; conditions: Homo sapiens; for EC50: 96 h, SW480 cell viability, four days, CellTiter-Blue; for inhibition at 10 µM: SW480, read-out: percent inhibition at 10 μM
Outline: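 Fluorescence from resazurin reduced to resorufin by metabolically active cells was the read-out, taken after ~3 h with CellTiter-Blue.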

[3] = tested on: Wnt activity (Sp5-Luc reporter, TCF/LEF binding sites) in SW480 colon carcinoma cells; test: Wnt activity screening assay: Sp5-Luc reporter gene assay in SW480 cells; conditions: Homo sapiens; for EC50: Sp5-Luc reporter, SW480 cells, overnight incubation; for inhibition at 10 µM: SW480, read-out: percent inhibition at 10 μM
Outline: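 SW480 cells stably carrying a luciferase reporter under a human Sp5 promoter with eight TCF/LEF sites, plated at 4,000 cells/well in 1% FBS medium. Luminescence read with BrightGlo, normalized to DMSO-treated cells; EC50 from four-parameter variable-slope nonlinear regression.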

[4] = tested on: primary human mesenchymal stem cells (hMSCs); test: Induction of chondrogenesis in primary human mesenchymal stem cells (chondrogenic nodules, Rhodamine B / Nile Red); conditions: 6 days; for EC50: concentration required to induce 50% levels of chondrogenesis vs TGF-β3, read-out: Conc (nM) of 50% TGF-β3 activity; for Emax: relative to TGF-β3 (10 ng/mL) positive control, read-out: Max. Activity as % TGF-β3 activity
Text: Representative compounds were screened using primary human mesenchymal stem cells (hMSCs) to determine their ability to induce chondrogenesis (process by which cartilage is developed).
Human Mesenchymal Stem Cell Culture: Primary human mesenchymal stem cells (hMSCs) were purchased from Lonza (Walkersville, Md.) and expanded in Mesenchymal Stem Cell Growth Media (Lonza). Cells between passage 3 and 6 were used for the experiments.
To image chondrogenic nodules, the cells were fixed using 4% formaldehyde (Electron Microscopy Sciences), and stained with 2 μg/mL Rhodamine B (Sigma-Aldrich) and 20 μM Nile Red (Sigma-Aldrich) [Johnson K., et. al, A Stem Cell-Based Approach to Cartilage Repair, Science, (2012). […] Number of nodules in each well was normalized to the average of 3 DMSO treated wells on the same plate using Excel (Microsoft Inc.). The normalized averages (fold change over DMSO) of 3 replicate wells for each compound concentration were calculated. Due to solubility limitations of some of the compounds, curve fitting was incomplete leading to inaccurate EC50 determinations.
Using TGF-β3 as a positive control, the concentration of representative compounds required to induce 50% levels of chondrogenesis is reported. In addition, the maximum activity of each compound and the respective dose that each compound reached maximum chondrogenesis activity is reported.

[5] = tested on: IL-6 in THP-1 cells; test: IL-6 inhibition in LPS-stimulated THP-1 human monocyte cells (HTRF); conditions: for EC50: IL-6 inhibition, LPS-stimulated THP-1 cells, HTRF, 10-point dose-response starting from 10 μM; for inhibition at 10 µM: THP-1, read-out: percentage in parentheses beside EC50 >10
Outline: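 THP-1 cells were serum-reduced (1% FBS, 24 h), plated at 5000 cells/well with compound for 2 h at 37 °C, then stimulated 22 h with 500 ng/mL LPS. Secreted IL-6 was quantified by HTRF (665/620 nm ratio). Signals were normalised to DMSO, and EC50 was fitted by four-parameter nonlinear regression.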

EC50 [2] [nM] | EC50 [3] [nM] | EC50 [4] [nM] | EC50 [5] [nM] | Structure (SMILES) | EC50 [1] [nM] | Emax [4] [%] | inhibition at 10 µM [1] [%] | inhibition at 10 µM [2] [%] | inhibition at 10 µM [3] [%] | inhibition at 10 µM [5] [%]
827 | 3850 | 900 | 4800 | c1cc2[nH]c(-c3n[nH]c4ncc(-c5cncc(CN6CCCCC6)c5)cc34)cc2c(N2CCCCC2)n1 [Compound 183, 3-(4-(Piperidin-1-yl)-1H-pyrrolo[3,2-c]pyridin-2-yl)-5-(5-(piperidin-1-ylmethyl)pyridin-3-yl)-1H-pyrazolo[3,4-b]pyridine] | 1220 | 62 | – | – | – | –
1430 | 1330 | – | 2260 | CC(C)(C)CC(=O)Nc1cncc(-c2cnc3[nH]nc(-c4cc5c(N6CCCCC6)nccc5[nH]4)c3c2)c1 [Compound 184, 3,3-Dimethyl-N-(5-(3-(4-(piperidin-1-yl)-1H-pyrrolo[3,2-c]pyridin-2-yl)-1H-pyrazolo[3,4-b]pyridin-5-yl)pyridin-3-yl)butanamide] | 773 | 84 | – | – | – | –
6710 | 3850 | – | 2540 | O=C(Nc1cncc(-c2cnc3[nH]nc(-c4cc5c(N6CCCCC6)nccc5[nH]4)c3c2)c1)C1CC1 [Compound 188, N-(5-(3-(4-(Piperidin-1-yl)-1H-pyrrolo[3,2-c]pyridin-2-yl)-1H-pyrazolo[3,4-b]pyridin-5-yl)pyridin-3-yl)cyclopropanecarboxamide] | > 10000 | 42 | 0 | – | – | –
> 10000 | 3410 | – | 141 | CC(C)CC(=O)Nc1cncc(-c2cnc3[nH]nc(-c4cc5c(N6CCN(C)CC6)nccc5[nH]4)c3c2)c1 [Compound 226, 3-Methyl-N-(5-(3-(4-(4-methylpiperazin-1-yl)-1H-pyrrolo[3,2-c]pyridin-2-yl)-1H-pyrazolo[3,4-b]pyridin-5-yl)pyridin-3-yl)butanamide] | > 10000 | 99 | 0 | 57.6 | – | –
> 10000 | > 10000 | – | 707 | CN1CCN(c2nccc3[nH]c(-c4n[nH]c5ncc(-c6cncc(N)c6)cc45)cc23)CC1 [Compound 227, 5-(3-(4-(4-Methylpiperazin-1-yl)-1H-pyrrolo[3,2-c]pyridin-2-yl)-1H-pyrazolo[3,4-b]pyridin-5-yl)pyridin-3-amine] | > 10000 | 18 | 0 | 14.4 | 28.1 | –
> 10000 | > 10000 | 30 | 611 | CC(C)C(=O)Nc1cncc(-c2cnc3[nH]nc(-c4cc5c(N6CCN(C)CC6)nccc5[nH]4)c3c2)c1 [Compound 233, N-(5-(3-(4-(4-Methylpiperazin-1-yl)-1H-pyrrolo[3,2-c]pyridin-2-yl)-1H-pyrazolo[3,4-b]pyridin-5-yl)pyridin-3-yl)isobutyramide] | > 10000 | 62 | 34 | 10.7 | 19.5 | –
> 10000 | 3240 | – | 6980 | CN1CCN(c2nccc3[nH]c(-c4n[nH]c5ncc(-c6cncc(NC(=O)c7ccccc7)c6)cc45)cc23)CC1 [Compound 235, N-(5-(3-(4-(4-Methylpiperazin-1-yl)-1H-pyrrolo[3,2-c]pyridin-2-yl)-1H-pyrazolo[3,4-b]pyridin-5-yl)pyridin-3-yl)benzamide] | 891 | 63 | – | 19.1 | – | –
3800 | > 10000 | – | 3280 | CN1CCN(c2nccc3[nH]c(-c4n[nH]c5ncc(-c6cncc(CN7CCCCC7)c6)cc45)cc23)CC1 [Compound 239, 3-(4-(4-Methylpiperazin-1-yl)-1H-pyrrolo[3,2-c]pyridin-2-yl)-5-(5-(piperidin-1-ylmethyl)pyridin-3-yl)-1H-pyrazolo[3,4-b]pyridine] | > 10000 | 24 | 28.8 | – | 55 | –
> 10000 | > 10000 | – | 2150 | CN1CCN(c2nccc3[nH]c(-c4n[nH]c5ncc(-c6cncc(NC(=O)C7CCCC7)c6)cc45)cc23)CC1 [Compound 246, N-(5-(3-(4-(4-Methylpiperazin-1-yl)-1H-pyrrolo[3,2-c]pyridin-2-yl)-1H-pyrazolo[3,4-b]pyridin-5-yl)pyridin-3-yl)cyclopentane carboxamide] | 6460 | 30 | – | 15.4 | 43 | –
> 10000 | 960 | – | 1000 | CCC(=O)Nc1cncc(-c2cnc3[nH]nc(-c4cc5cnccc5[nH]4)c3c2)c1 [Compound 253, N-(5-(3-(1H-Pyrrolo[3,2-c]pyridin-2-yl)-1H-pyrazolo[3,4-b]pyridin-5-yl)pyridin-3-yl)propionamide] | 3710 | 17 | – | 50.3 | – | –
356 | 251 | – | 218 | c1cncc(-c2cnc3[nH]nc(-c4cc5cnccc5[nH]4)c3c2)c1 [Compound 256, 5-(Pyridin-3-yl)-3-(1H-pyrrolo[3,2-c]pyridin-2-yl)-1H-pyrazolo[3,4-b]pyridine] | 200 | 54 | – | – | – | –
1630 | 3760 | 10 | > 10000 | CN(C)c1cncc(-c2cnc3[nH]nc(-c4cc5cnccc5[nH]4)c3c2)c1 [Compound 259, 5-(3-(1H-Pyrrolo[3,2-c]pyridin-2-yl)-1H-pyrazolo[3,4-b]pyridin-5-yl)-N,N-dimethylpyridin-3-amine] | 1430 | 80 | – | – | – | 20.1
> 10000 | > 10000 | 30 | > 10000 | O=C(Nc1cncc(-c2cnc3[nH]nc(-c4cc5cnccc5[nH]4)c3c2)c1)c1ccccc1 [Compound 263, N-(5-(3-(1H-Pyrrolo[3,2-c]pyridin-2-yl)-1H-pyrazolo[3,4-b]pyridin-5-yl)pyridin-3-yl)benzamide] | > 10000 | 70 | 0 | 24.6 | 65.5 | 30
1240 | 1540 | – | 1560 | c1cc2[nH]c(-c3n[nH]c4ncc(-c5cncc(CN6CCCCC6)c5)cc34)cc2cn1 [Compound 267, 5-(5-(Piperidin-1-ylmethyl)pyridin-3-yl)-3-(1H-pyrrolo[3,2-c]pyridin-2-yl)-1H-pyrazolo[3,4-b]pyridine] | 1850 | 40 | – | – | – | –
1100 | 605 | – | 683 | CC(C)(C)CC(=O)Nc1cncc(-c2cnc3[nH]nc(-c4cc5cnccc5[nH]4)c3c2)c1 [Compound 268, N-(5-(3-(1H-Pyrrolo[3,2-c]pyridin-2-yl)-1H-pyrazolo[3,4-b]pyridin-5-yl)pyridin-3-yl)-3,3-dimethylbutanamide] | 3350 | 7 | – | – | – | –
3350 | 867 | – | 1020 | CCCC(=O)Nc1cncc(-c2cnc3[nH]nc(-c4cc5cnccc5[nH]4)c3c2)c1 [Compound 269, N-(5-(3-(1H-Pyrrolo[3,2-c]pyridin-2-yl)-1H-pyrazolo[3,4-b]pyridin-5-yl)pyridin-3-yl)butyramide] | 2260 | 100 | – | – | – | –
4030 | 1470 | – | 2860 | CCCCC(=O)Nc1cncc(-c2cnc3[nH]nc(-c4cc5cnccc5[nH]4)c3c2)c1 [Compound 271, N-(5-(3-(1H-Pyrrolo[3,2-c]pyridin-2-yl)-1H-pyrazolo[3,4-b]pyridin-5-yl)pyridin-3-yl)pentanamide] | 4100 | 31 | – | – | – | –
